From US12134587B2, “Reaction products and methods for making and using the same” (KOCH AGRONOMIC SERVICES, LLC, priority 2010, dated 2024)

Tested on: nitrification of ammonium to nitrate in Greenville loamy soil
Assay: Soil incubation test of nitrogen transformations (ammonium-N and nitrate-N)
Method: Three reaction products (Ex. 1-3) mixed with a urea solution to produce a liquid fertilizer solution were prepared and incubation tests were conducted. A comparative example of a urea only solution, i.e., a urea solution without a reaction product (C1), and a comparative example of a urea solution mixed with dicyandiamide (DCD) (C2) were also prepared and evaluated. For comparative example C2, the urea solution mixed with DCD was not reacted. In other words, the DCD was mixed with the urea solution to provide the fertilizer. A Control was also prepared that consisted of soil, i.e., no nitrogen source nor reaction product was added.
Incubation tests were performed using each Example 1-3 to evaluate the nitrogen transformations for each sample. The effect of each reaction product (Ex. 1-3) on the nitrogen concentration in the soil as both ammonium-nitrogen and nitrate-nitrogen were evaluated at three different concentrations of the reaction products. More particularly, the concentration of DCD for a first set of samples was 0.75 wt. % (Table 1), a second set of samples was 1.5 wt. % (Table 2), and a third set of samples was 3 wt. % (Table 3), where the weight percents of the DCD concentration are based on the total weight of nitrogen in the urea solution.
The soil used in the incubation tests was Greenville loamy soil (clay-loam, siliceous, thermic Plinthic Kandiudults). […] The phosphorous and sulfur concentrations were determined according to the Bray-1 test. The zinc concentration was determined according to the DTPA (diethylenetriaminepentaacetic acid) soil test.
As used herein, the term “field capacity,” refers to the drained upper limit or moisture content below which there is no free drainage flow. During the one week incubation period the moisture was reduced to about 80%. For each test 50 g of soil was placed into a cup and each cup was covered with a lid having four holes to allow for aeration and to minimize water loss.
Stock solutions containing each example were prepared by adding 2.15 g of urea and the corresponding amount of DCD (C2) or the reaction product (Ex. 1-3) to a 500 mL beaker to provide samples having 0.75 wt. % (Table 1), 1.5 wt. % (Table 2), and 3 wt. % (Table 3) DCD based on the total nitrogen concentration in the urea solution. After adding the urea (C1), urea plus DCD (C2), and urea plus the reaction products (Ex. 1-3), to the beakers, the contents of each beaker were diluted to 500 mL with distilled water to provide a stock solution. For the examples shown in Tables 1-3 below, 5 mL of the corresponding stock solution were introduced via a pipette onto each 50 g soil sample and the cover was placed thereon. The amount of nitrogen contained in each example (Ex. 1-3, C1, and C2) was 10 mg and the nitrogen was in the form of urea. The soil had at least an 80% field moisture capacity for each sample and if needed additional distilled water was used in order to achieve the 80% field moisture capacity.
Soil extractions were made at 1 week intervals to determine the amount of ammonium-nitrogen and nitrate-nitrogen in each example. A total of 10 extractions were performed, namely at time=0 and after the 1st week, 2nd week, 3rd week, 4th week, 5th week, 6th week, 7th week, 8th week, and the […]. Extracting the nitrogen from each sample was done by adding 100 mL of a 2M potassium chloride (KCl) solution to each soil sample to be tested. The amount of nitrogen in the form of ammonium (NH4^+) and nitrate (NO3^−) were then determined.
The amount of ammonium was determined using the well-known Berthelot reaction in which ammonia is chlorinated to monochloroamine, which then reacts with salicylate to form 5-aminosalicylate. After oxidation and oxidative coupling, a green color complex was formed which was measured at 660 nm using a spectrophotometer.
The determination of nitrate was determined based on the reduction of nitrate (NO3) to […] (NO2) by hydrazinium sulfate or cadmium metal. […]

[1] = 0.75 wt. % DCD based on nitrogen in urea solution, Wk. 0
[2] = 1.5 wt. % DCD Based on the Weight of Nitrogen in the Fertilizer, Wk. 0
[3] = 3 wt. % DCD Based on the Weight of Nitrogen in the Fertilizer, Wk. 0

Compound: NC(N)=O [C1, urea]
- Ammonium (NH4^+) [1]: 0.39 mg N
- Nitrate (NO3^−) [1]: 1.27 mg N
- Ammonium (NH4^+) (0.75 wt. % DCD, Wk. 1): 6.81 mg N
- Nitrate (NO3^−) (0.75 wt. % DCD, Wk. 1): 3.61 mg N
- Ammonium (NH4^+) (0.75 wt. % DCD, Wk. 2): 4.21 mg N
- Nitrate (NO3^−) (0.75 wt. % DCD, Wk. 2): 6.37 mg N
- Ammonium (NH4^+) (0.75 wt. % DCD, Wk. 3): 2.14 mg N
- Nitrate (NO3^−) (0.75 wt. % DCD, Wk. 3): 8.38 mg N
- Ammonium (NH4^+) (0.75 wt. % DCD, Wk. 4): 0.18 mg N
- Nitrate (NO3^−) (0.75 wt. % DCD, Wk. 4): 10.45 mg N
- Ammonium (NH4^+) (0.75 wt. % DCD, Wk. 5): 0.08 mg N
- Nitrate (NO3^−) (0.75 wt. % DCD, Wk. 5): 10.69 mg N
- Ammonium (NH4^+) (0.75 wt. % DCD, Wk. 6): 0.08 mg N
- Nitrate (NO3^−) (0.75 wt. % DCD, Wk. 6): 10.66 mg N
- Ammonium (NH4^+) (0.75 wt. % DCD, Wk. 7): 0.09 mg N
- Nitrate (NO3^−) (0.75 wt. % DCD, Wk. 7): 10.85 mg N
- Ammonium (NH4^+) (0.75 wt. % DCD, Wk. 8): 0.10 mg N
- Nitrate (NO3^−) (0.75 wt. % DCD, Wk. 8): 10.97 mg N
- Ammonium (NH4^+) (0.75 wt. % DCD, Wk. 10): 0.04 mg N
- Nitrate (NO3^−) (0.75 wt. % DCD, Wk. 10): 10.98 mg N
- Ammonium (NH4^+) [2]: 0.39 mg N
- Nitrate (NO3^−) [2]: 1.27 mg N
- Ammonium (NH4^+) (1.5 wt. % DCD, Wk. 1): 6.81 mg N
- Nitrate (NO3^−) (1.5 wt. % DCD, Wk. 1): 3.61 mg N
- Ammonium (NH4^+) (1.5 wt. % DCD, Wk. 2): 4.21 mg N
- Nitrate (NO3^−) (1.5 wt. % DCD, Wk. 2): 6.37 mg N
- Ammonium (NH4^+) (1.5 wt. % DCD, Wk. 3): 2.14 mg N
- Nitrate (NO3^−) (1.5 wt. % DCD, Wk. 3): 8.38 mg N
- Ammonium (NH4^+) (1.5 wt. % DCD, Wk. 4): 0.18 mg N
- Nitrate (NO3^−) (1.5 wt. % DCD, Wk. 4): 10.45 mg N
- Ammonium (NH4^+) (1.5 wt. % DCD, Wk. 5): 0.08 mg N
- Nitrate (NO3^−) (1.5 wt. % DCD, Wk. 5): 10.69 mg N
- Ammonium (NH4^+) (1.5 wt. % DCD, Wk. 6): 0.08 mg N
- Nitrate (NO3^−) (1.5 wt. % DCD, Wk. 6): 10.66 mg N
- Ammonium (NH4^+) (1.5 wt. % DCD, Wk. 7): 0.09 mg N
- Nitrate (NO3^−) (1.5 wt. % DCD, Wk. 7): 10.85 mg N
- Ammonium (NH4^+) (1.5 wt. % DCD, Wk. 8): 0.10 mg N
- Nitrate (NO3^−) (1.5 wt. % DCD, Wk. 8): 10.97 mg N
- Ammonium (NH4^+) (1.5 wt. % DCD, Wk. 10): 0.04 mg N
- Nitrate (NO3^−) (1.5 wt. % DCD, Wk. 10): 10.98 mg N
- Ammonium (NH4^+) [3]: 0.39 mg N
- Nitrate (NO3^−) [3]: 1.27 mg N
- Ammonium (NH4^+) (3 wt. % DCD, Wk. 1): 6.81 mg N
- Nitrate (NO3^−) (3 wt. % DCD, Wk. 1): 3.61 mg N
- Ammonium (NH4^+) (3 wt. % DCD, Wk. 2): 4.21 mg N
- Nitrate (NO3^−) (3 wt. % DCD, Wk. 2): 6.37 mg N
- Ammonium (NH4^+) (3 wt. % DCD, Wk. 3): 2.14 mg N
- Nitrate (NO3^−) (3 wt. % DCD, Wk. 3): 8.38 mg N
- Ammonium (NH4^+) (3 wt. % DCD, Wk. 4): 0.18 mg N
- Nitrate (NO3^−) (3 wt. % DCD, Wk. 4): 10.45 mg N
- Ammonium (NH4^+) (3 wt. % DCD, Wk. 5): 0.08 mg N
- Nitrate (NO3^−) (3 wt. % DCD, Wk. 5): 10.69 mg N
- Ammonium (NH4^+) (3 wt. % DCD, Wk. 6): 0.08 mg N
- Nitrate (NO3^−) (3 wt. % DCD, Wk. 6): 10.66 mg N
- Ammonium (NH4^+) (3 wt. % DCD, Wk. 7): 0.09 mg N
- Nitrate (NO3^−) (3 wt. % DCD, Wk. 7): 10.85 mg N
- Ammonium (NH4^+) (3 wt. % DCD, Wk. 8): 0.10 mg N
- Nitrate (NO3^−) (3 wt. % DCD, Wk. 8): 10.97 mg N
- Ammonium (NH4^+) (3 wt. % DCD, Wk. 10): 0.04 mg N
- Nitrate (NO3^−) (3 wt. % DCD, Wk. 10): 10.98 mg N
